Laboratory results taken from patent publication US4999374A, “Veterinary treatment” (priority 1987, dated 1991).
≈ marks a conversion by molar mass, not a printed value.

Columns and labels:
T. hyodysenteriae (P18a) [1] = assay: Efficacy of M139603 in preventing swine dysentery in pigs, experimental infection (Example 5, Table 5); type: in vivo; settings: 25 ppm feed
Protocol: The efficacy of M139603 was tested at 25 ppm feed.
(§1) In this studY two groups (Gp.1 and Gp.2) of pigs, six per group, were experimentally infected with a pathogenic strain of T. hyodysenteriae (P18a, IRAD(Institute for Animal Health), Compton, Berks, U.K.) by oro-gastric inoculation of 50 ml of a culture suspension (1×10^7cfu/ml) of the organism into each animal. From post-infection day (PID) to PID 35 the animals in Gp. 1 were offered ad lib a feed comprising "Kwikwean" meal (Rank, Hovis, McDougall Research Ltd; containing no antibiotics) incorporated with M139603 at 25 ppm. Gp.2 remained on unmedicated feed throughout the trial. Drug efficacy was measured primarily on the basis of the number of diarrhoea or dysentery days in relation to pig-days within a group and on the average daily weight gain per pig, in each group over the period of the trial. The daily gain was calculated by dividing group gain at end of trial (PID 35) by the total number of pig-days from PID 1 to PID 35. […] In the experiment the pigs were exposed to high infective doses of the organism a day before the introduction of the drug. Under normal circumstances preventive dose-regimes are applied on animals at risk and not on those already infected.

[2] = test system: T. hyodysenteriae (strain "P18a"); assay: Efficacy of M139603 in pigs, natural infection (Example 6, Table 6); type: in vivo; settings: for Mortality (+ culls): 38 days, 6 pigs; for Number diarrhoea/dysentery days / Percent diarrhoea/dysentery days: pi 1 to 38; for Average weight at end: start 10.95 kg
Protocol: as §1
(§2) In this study, eighteen pigs were allocated to three equal groups (Gp.1-3). Feed incorporated with the drug at 25 or 15 ppm was offered to Gp.1 and 2, respectively, on thirty-eight consecutive days commencing six hours pre-infection. Gp.3 remained on unmedicated feed throughout the trial. The pigs were infected with T. hyodysenteriae (strain "P18a") using methods and materials similar to those applied in Example 5. However, seven days following this exposure (post-infection day 7), over a period of seven consecutive days, the pigs in Gp. 1 and 2 were allowed to co-mingle for about two hours each day with some dysenteric "seeder pigs" in a nearby pen. Drug efficacy, as in Example 6, was assessed primarily on the basis of the total number of diarrhoea/dysentery days per group and on the basis of average daily weight gain per pig per group. The results are indicative of the good efficacy of M139603 even at a level as low as 15 ppm feed in preventing swine dysentery. At this dose-level, the daily drug-intake is unlikely to be more than 0.9 mg/kg/body-weight, if daily feed is calculated at 6% of a pig's body-weight.

T. hyodysenteriae (P18a) [3] = assay: Efficacy of M139603 in pigs at low doses (Example 7, Table 7); type: in vivo; design: Group weight / Ave. daily weight-gain: unit not given here; settings: for Mortality (+ culls): 42 days, 6 pigs
Protocol: as §1, §2
In this experiment twenty-four pigs were split into four equal groups (Gp. 1-4). Gp. 1 and 2 were offered the drug at 15 or 10 ppm feed on forty-two consecutive days, commencing six hours pre-infection. Gp. 3 (infected) and Gp. 4 (uninfected) remained on unmedicated feed throughout. The infection procedures with T. hyodysenteriae (P18a) were similar to those applied above. Only three groups, Gp. 1, 2 and 3 were infected. Gp. 4 remained uninfected in a well-isolated pen throughout the trial period. Three days following the initial exposure to the infection (post-infection day 3), over a period of five continuous days, the pigs in Gp. 1, 2 and 3 were allowed to co-mingle with dysenteric "seeder pigs" housed in a separate pen. Drug efficacy was measured using the criteria applied in the Examples 5 and 6. […] Thereafter, the differences narrowed, primarily due to the placement of Gp. 3 on tiamulin to prevent further weight losses, and consequent deaths. Despite the number of diarrhoea days observed for Gp. 1 (6.8%) and Gp.

[4] = test system: T. hyodysenteriae strain "P18a"; assay: Agar-dilution M.I.C. test of M139603 and analogues (Example 8, Table 8); type: cell-based, Treponema hyodysenteriae; settings: Brachyspira hyodysenteriae, Isosensitest agar with 5% sheep-blood, anaerobic, 39° C., 48-72 hours
Protocol: T. hyodysenteriae strain "P18a" was used in both in vitro and in vivo tests as above.
Minimum inhibitory concentration test: An agar-dilution M.I.C. test procedure was applied in the study. The susceptibility of the bacterial strain was tested against a range of dilutions (0.3 mg; 0.1 mg; 0.03 mg; 0.01 mg and 0.003 mg/l medium) of each compound incorporated in plates of Isosensitest agar (Oxoid CM471) with 5% added sheep-blood. The plates, `spot-inoculated` (Steer's type multipoint inoculator) with a standard culture-suspension of the test strain, were incubated anaerobically at 39° C. for 48-72 hours before reading the results. The M.I.C. of each compound was read as the lowest concentration yielding no growth (no haemolysis) or a hazy growth (faint haemolysis) on the site of the spot-inoculation.

`CO[C@@H](C)[C@H]1C[C@H](C)[C@H]([C@@H](C)/C=C/[C@@H]2CC[C@@H](C)[C@H](/C(=C/[C@H]3CCC[C@@H](C)[C@@H]3[C@H](C)C(=O)C3=C(O)COC3=O)CO)O2)O1` [Analogue M139603, tetronasin] was tested, and the “Efficacy in preventing swine dysentery” value (T. hyodysenteriae (P18a) [1]) was “preventing or minimising the incidence of swine dysentery”, the “Mortality (+ culls)” value (T. hyodysenteriae (P18a) [1]; 35 days, 6 pigs) was 0 and the Average daily weight-gain (T. hyodysenteriae (P18a) [1]; PID 1-35) was 0.62 kg. The Number diarrhoea/dysentery days (T. hyodysenteriae (P18a) [1]; PID 1-35) was 27 days, the Percent diarrhoea/dysentery days (T. hyodysenteriae (P18a) [1]; PID 1-35) was 12.9% and the “Average weight at termination” value (T. hyodysenteriae (P18a) [1]; start 18.8) was 40.5. The “Group weight at termination” value (T. hyodysenteriae (P18a) [1]; start 112 kg) was 243 kg, the Average daily weight-gain ([2]; 15 ppm feed) was 0.72 kg and the “Efficacy in preventing swine dysentery” value ([2]; 15 ppm feed) was “good efficacy”. For the same compound, the “Mortality (+ culls)” value ([2]; 15 ppm feed) was 0, the Number diarrhoea/dysentery days ([2]; 15 ppm feed) was 0 days and the Percent diarrhoea/dysentery days ([2]; 15 ppm feed) was 0%. The “Average weight at end” value ([2]; 15 ppm feed) was 41.0 kg, the “Group weight at end” value ([2]; 15 ppm feed, start 65.5 kg) was 246.5 kg and the “Animals developing a transient dysentery” value ([2]; 25 ppm feed) was “one of the six animals”. The Average daily weight-gain ([2]; 25 ppm feed) was 0.72 kg, the “Mortality (+ culls)” value ([2]; 25 ppm feed) was 0 and the Number diarrhoea/dysentery days ([2]; 25 ppm feed) was 14 days. The Percent diarrhoea/dysentery days ([2]; 25 ppm feed) was 6.1%, the “Average weight at end” value ([2]; 25 ppm feed) was 41.0 kg and the “Group weight at end” value ([2]; 25 ppm feed, start 65.7 kg) was 246.5 kg. The Ave. daily weight-gain (T. hyodysenteriae (P18a) [3]; 10 ppm feed group, post-infection day 44 to 57, inclusive (after withdrawal)) was 0.65, the “Mortality (+ culls)” value (T. hyodysenteriae (P18a) [3]; 10 ppm feed) was 0 and the Ave. daily weight-gain (T. hyodysenteriae (P18a) [3]; 10 ppm feed, day 4 pre-infection to day 22 post-infection) was 0.59. For the same compound, the Percent diarrhoea/dysentery days (T. hyodysenteriae (P18a) [3]; 10 ppm feed, post-infection day 1 to 21) was 4.8%, the No. diarrhoea/dysentery days (T. hyodysenteriae (P18a) [3]; 10 ppm feed, post-infection day 1 to 21 (126 pig-days)) was 6 days and the Percent diarrhoea/dysentery days (T. hyodysenteriae (P18a) [3]; 10 ppm feed, post-infection day 1 to 42) was 11.9%. The No. diarrhoea/dysentery days (T. hyodysenteriae (P18a) [3]; 10 ppm feed, post-infection day 1 to 42 (252 pig-days)) was 30 days, the Group weight (T. hyodysenteriae (P18a) [3]; 10 ppm feed, post-infection day 21, start 66.0) was 161.0 and the Ave. daily weight-gain (T. hyodysenteriae (P18a) [3]; 10 ppm feed, post-infection day 23 to 43, inclusive) was 0.83. For the same compound, the Group weight (T. hyodysenteriae (P18a) [3]; 10 ppm feed, post-infection day 43 (1 day from withdrawal of medication)) was 265.0, the “Average daily weight-gain vs uninfected, unmedicated group” value (T. hyodysenteriae (P18a) [3]; 15 or 10 ppm feed) was “exceeded that recorded for pigs in the uninfected, unmedicated group” and the “Weight gain vs unmedicated, infected group” value (T. hyodysenteriae (P18a) [3]; 15 or 10 ppm feed, by post-infection day 21) was “Significant weight gain differences”. For the same compound, the Ave. daily weight-gain (T. hyodysenteriae (P18a) [3]; 15 ppm feed group, post-infection day 44 to 57, inclusive (after withdrawal)) was 0.86, the “Mortality (+ culls)” value (T. hyodysenteriae (P18a) [3]; 15 ppm feed) was 0 and the Ave. daily weight-gain (T. hyodysenteriae (P18a) [3]; 15 ppm feed, day 4 pre-infection to day 22 post-infection) was 0.56. The Percent diarrhoea/dysentery days (T. hyodysenteriae (P18a) [3]; 15 ppm feed, post-infection day 1 to 21) was 4%, the No. diarrhoea/dysentery days (T. hyodysenteriae (P18a) [3]; 15 ppm feed, post-infection day 1 to 21 (126 pig-days)) was 5 days and the Percent diarrhoea/dysentery days (T. hyodysenteriae (P18a) [3]; 15 ppm feed, post-infection day 1 to 42) was 6.8%. For the same compound, the No. diarrhoea/dysentery days (T. hyodysenteriae (P18a) [3]; 15 ppm feed, post-infection day 1 to 42 (252 pig-days)) was 17 days, the Group weight (T. hyodysenteriae (P18a) [3]; 15 ppm feed, post-infection day 21, start 63.7) was 153.7 and the Ave. daily weight-gain (T. hyodysenteriae (P18a) [3]; 15 ppm feed, post-infection day 23 to 43, inclusive) was 0.81. The Group weight (T. hyodysenteriae (P18a) [3]; 15 ppm feed, post-infection day 43 (1 day from withdrawal of medication)) was 225.5, the Group weight (T. hyodysenteriae (P18a) [3]; 15 ppm feed, post-infection day 57 (15 days from withdrawal of medication)) was 327.5 and the “Feed level found to be effective (lowest)” value (T. hyodysenteriae (P18a) [3]; in the feed) was 10 ppm. It also gave an MIC [4] of 0.01 µg/mL (≈ 0.0166 µM).
